Data from patent US20070093455A1, “10-substituted tetracyclines and methods of use thereof” (priority 2005, published 2007).
In brackets after ≈: the same amount, converted by molar mass.

Test system: S. aureus RN450
Experiment: In vitro MIC assay, S. aureus RN450
Format: cell-based
Conditions: Staphylococcus aureus, broth microdilution, 35° C., 18-24 hours

Structure (SMILES) | MIC [µg/mL]
CN(C)c1cccc2c1CC1CC3[C@@H](N(C)C)C(O)=C(C(N)=O)C(=O)[C@@]3(O)C(O)=C1C2=O (stereo partly drawn) [C] | 0 to 21
CN(C)c1cc(C(=O)O)cc2c1CC1CC3[C@H](N(C)C)C(O)=C(C(N)=O)C(=O)[C@@]3(O)C(O)=C1C2=O (stereo partly drawn) [D] | 44 to 64 (≈ 90.6 to 132 µM)
CN(C)c1cccc2c1CC1CC3CC(O)=C(C(N)=O)C(=O)[C@@]3(O)C(O)=C1C2=O (stereo partly drawn) [E] | 0 to 21

Test system: S. aureus RN4250
Experiment: In vitro MIC assay, S. aureus RN4250
Format: cell-based
Conditions: Staphylococcus aureus, broth microdilution, 35° C., 18-24 hours

Structure (SMILES) | MIC [µg/mL]
CN(C)c1cccc2c1CC1CC3[C@@H](N(C)C)C(O)=C(C(N)=O)C(=O)[C@@]3(O)C(O)=C1C2=O (stereo partly drawn) [C] | 0 to 21
CN(C)c1cc(C(=O)O)cc2c1CC1CC3[C@H](N(C)C)C(O)=C(C(N)=O)C(=O)[C@@]3(O)C(O)=C1C2=O (stereo partly drawn) [D] | 44 to 64 (≈ 90.6 to 132 µM)
CN(C)c1cccc2c1CC1CC3CC(O)=C(C(N)=O)C(=O)[C@@]3(O)C(O)=C1C2=O (stereo partly drawn) [E] | 0 to 21

Test system: E. coli translation
Experiment: In vitro translation assay for inhibition of bacterial protein synthesis (E. coli S30 Extract System, luciferase)
Format: biochemical
Conditions: 37° C., 1 hour, luciferase luminescence
Protocol: As a further measure of antibacterial activity, an E. coli S30 Extract System was used to quantitate inhibition of E. coli translation by tetracycline derivatives. This system contained all required components for translation, including a nucleic acid template which, when translated, produces functional luciferase. The reactions were set up with E. coli S30 extract, amino acids, DNA template and selected tetracycline compounds at concentrations of 100, 50, 25, 10, 5, and 1 μg/ml. The reactions were incubated at 37° C. for 1 hour and analyzed by adding the reaction mix to Steady-Glo Luciferase Assay substrate (Promega, Madison Wis.). Luminescence was measured with the Wallac Victor5 plate reader and inhibition is calculated by comparing luciferase activity in experimental reactions versus controls.

Structure (SMILES) | IC20 [µM] | IC50 [µM]
CN(C)c1cccc2c1CC1CC3[C@@H](N(C)C)C(O)=C(C(N)=O)C(=O)[C@@]3(O)C(O)=C1C2=O (stereo partly drawn) [C] | > 100 | > 100
CN(C)c1cc(C(=O)O)cc2c1CC1CC3[C@H](N(C)C)C(O)=C(C(N)=O)C(=O)[C@@]3(O)C(O)=C1C2=O (stereo partly drawn) [D] | < 100 | < 100
CN(C)c1cccc2c1CC1CC3CC(O)=C(C(N)=O)C(=O)[C@@]3(O)C(O)=C1C2=O (stereo partly drawn) [E] | > 100 | < 100

Test system: S. pneumoniae 157E
Experiment: In vitro MIC assay, S. pneumoniae 157E
Format: cell-based
Conditions: Streptococcus pneumoniae, broth supplemented with lysed horse blood, 35° C., 18-24 hours

Structure (SMILES) | MIC [µg/mL]
CN(C)c1cccc2c1CC1CC3[C@@H](N(C)C)C(O)=C(C(N)=O)C(=O)[C@@]3(O)C(O)=C1C2=O (stereo partly drawn) [C] | 0 to 21
CN(C)c1cc(C(=O)O)cc2c1CC1CC3[C@H](N(C)C)C(O)=C(C(N)=O)C(=O)[C@@]3(O)C(O)=C1C2=O (stereo partly drawn) [D] | 44 to 64 (≈ 90.6 to 132 µM)
CN(C)c1cccc2c1CC1CC3CC(O)=C(C(N)=O)C(=O)[C@@]3(O)C(O)=C1C2=O (stereo partly drawn) [E] | 44 to 64 (≈ 110 to 161 µM)

Test system: COS-1 or CHO cell
Experiment: Mammalian cell cytotoxicity assay (Resazurin; Alamar Blue)
Format: cell-based
Conditions: COS-1 or CHO cells, 24 hour incubation
Protocol: To predict the in vivo risks associated with the compounds of the invention, a soluble, non-toxic redox dye (“Resazurin”; Alamar Blue) was used to assess a compound's effect on cellular metabolism. COS-1 or CHO cell suspensions were prepared, seeded into 96-well black-walled microtiter plates, and incubated overnight at 37° C., in 5% CO2 and approximately 95% humidity. On the next day, serial dilutions of test drug were prepared and transferred to cell plates. Following a 24 hour incubation period, the media/drug was aspirated, and 50 μL of resazurin was added. After a 2 hour incubation, fluorescence measurements were taken (excitation […], emission 590 nm) and toxic effects in treated versus control cells were compared based on the degree of fluorescence in each well.

Structure (SMILES) | cytotoxicity at 75 μg/mL
CN(C)c1cccc2c1CC1CC3[C@@H](N(C)C)C(O)=C(C(N)=O)C(=O)[C@@]3(O)C(O)=C1C2=O (stereo partly drawn) [C] | minimal cytotoxicity
CN(C)c1cc(C(=O)O)cc2c1CC1CC3[C@H](N(C)C)C(O)=C(C(N)=O)C(=O)[C@@]3(O)C(O)=C1C2=O (stereo partly drawn) [D] | minimal cytotoxicity

Test system: P. aeruginosa K1033
Experiment: In vitro MIC assay, P. aeruginosa K1033
Format: cell-based
Conditions: Pseudomonas aeruginosa, broth microdilution, 35° C., 18-24 hours

Structure (SMILES) | MIC [µg/mL]
CN(C)c1cccc2c1CC1CC3[C@@H](N(C)C)C(O)=C(C(N)=O)C(=O)[C@@]3(O)C(O)=C1C2=O (stereo partly drawn) [C] | 0 to 21
CN(C)c1cc(C(=O)O)cc2c1CC1CC3[C@H](N(C)C)C(O)=C(C(N)=O)C(=O)[C@@]3(O)C(O)=C1C2=O (stereo partly drawn) [D] | 44 to 64 (≈ 90.6 to 132 µM)
CN(C)c1cccc2c1CC1CC3CC(O)=C(C(N)=O)C(=O)[C@@]3(O)C(O)=C1C2=O (stereo partly drawn) [E] | 0 to 21

Test system: S. aureus MRSA5
Experiment: In vitro MIC assay, S. aureus MRSA5
Format: cell-based
Conditions: Staphylococcus aureus, broth microdilution, 35° C., 18-24 hours

Structure (SMILES) | MIC [µg/mL]
CN(C)c1cccc2c1CC1CC3[C@@H](N(C)C)C(O)=C(C(N)=O)C(=O)[C@@]3(O)C(O)=C1C2=O (stereo partly drawn) [C] | 44 to 64 (≈ 99.7 to 145 µM)
CN(C)c1cc(C(=O)O)cc2c1CC1CC3[C@H](N(C)C)C(O)=C(C(N)=O)C(=O)[C@@]3(O)C(O)=C1C2=O (stereo partly drawn) [D] | 44 to 64 (≈ 90.6 to 132 µM)
CN(C)c1cccc2c1CC1CC3CC(O)=C(C(N)=O)C(=O)[C@@]3(O)C(O)=C1C2=O (stereo partly drawn) [E] | 0 to 21

Test system: H. influenza (ATCC 49247)
Experiment: In vitro MIC assay, H. influenza (ATCC 49247)
Format: cell-based
Conditions: read-out: MIC H. influenza (ATCC 49247)

Structure (SMILES) | MIC [µg/mL]
CN(C)c1cccc2c1CC1CC3[C@@H](N(C)C)C(O)=C(C(N)=O)C(=O)[C@@]3(O)C(O)=C1C2=O (stereo partly drawn) [C] | 22 to 43 (≈ 49.8 to 97.4 µM)
CN(C)c1cc(C(=O)O)cc2c1CC1CC3[C@H](N(C)C)C(O)=C(C(N)=O)C(=O)[C@@]3(O)C(O)=C1C2=O (stereo partly drawn) [D] | 44 to 64 (≈ 90.6 to 132 µM)
CN(C)c1cccc2c1CC1CC3CC(O)=C(C(N)=O)C(=O)[C@@]3(O)C(O)=C1C2=O (stereo partly drawn) [E] | 22 to 43 (≈ 55.2 to 108 µM)

Test system: E. coli MG 1655 DWAK
Experiment: In vitro MIC assay, E. coli MG 1655 DWAK
Format: cell-based
Conditions: Escherichia coli, MG1655DWAK; broth microdilution, 35° C., 18-24 hours
Protocol: The following assay was used to determine the efficacy of tetracycline compounds against common bacteria. Serial dilutions of compounds were prepared in microdilution plates using a Tecan robotic workstation. Mueller Hinton broth cultures of gram negative and gram positive strains were grown or adjusted to match the turbidity of a 0.5 McFarland standard. 1:200 dilutions were made in appropriate broth (cation supplemented Mueller Hinton broth or Haemophilus test medium) to allow a final inoculum of 1×10^5 cfu. Lysed horse blood was used to supplement broth for testing S. pneumoniae. The plates were incubated at 35° C. in ambient air for 18-24 hours, read spectrophotometrically, and checked manually for evidence of bacterial growth. Serial dilutions of compounds were also added to Brucella agar supplemented with laked sheep blood for P. acnes tests. A standard inoculum was transferred to the plate using a stainless steel replicator. After 48 hours of anaerobic incubation at 35° C. plates were examined. The MIC was defined as the lowest concentration of the tetracycline compound that inhibits growth. Table 3 gives the MIC (μg/mL) of selected substituted tetracycline compounds against a variety of gram positive and gram negative bacteria.

Structure (SMILES) | MIC [µg/mL]
CN(C)c1cccc2c1CC1CC3[C@@H](N(C)C)C(O)=C(C(N)=O)C(=O)[C@@]3(O)C(O)=C1C2=O (stereo partly drawn) [C] | 0 to 21
CN(C)c1cc(C(=O)O)cc2c1CC1CC3[C@H](N(C)C)C(O)=C(C(N)=O)C(=O)[C@@]3(O)C(O)=C1C2=O (stereo partly drawn) [D] | 44 to 64 (≈ 90.6 to 132 µM)
CN(C)c1cccc2c1CC1CC3CC(O)=C(C(N)=O)C(=O)[C@@]3(O)C(O)=C1C2=O (stereo partly drawn) [E] | 0 to 21

Test system: E. coli (ATCC 25922)
Experiment: In vitro MIC assay, E. coli (ATCC 25922)
Format: cell-based
Conditions: Escherichia coli, ATCC25922; broth microdilution, 35° C., 18-24 hours

Structure (SMILES) | MIC [µg/mL]
CN(C)c1cccc2c1CC1CC3[C@@H](N(C)C)C(O)=C(C(N)=O)C(=O)[C@@]3(O)C(O)=C1C2=O (stereo partly drawn) [C] | 44 to 64 (≈ 99.7 to 145 µM)
CN(C)c1cc(C(=O)O)cc2c1CC1CC3[C@H](N(C)C)C(O)=C(C(N)=O)C(=O)[C@@]3(O)C(O)=C1C2=O (stereo partly drawn) [D] | 44 to 64 (≈ 90.6 to 132 µM)
CN(C)c1cccc2c1CC1CC3CC(O)=C(C(N)=O)C(=O)[C@@]3(O)C(O)=C1C2=O (stereo partly drawn) [E] | 44 to 64 (≈ 110 to 161 µM)

Test system: Mouse 3T3 fibroblast cells
Experiment: Phototoxicity assay (neutral red)
Format: cell-based
Conditions: 3T3 cells, UV light 1.6-1.8 mW/cm^2, 30 μM
Protocol: Mouse 3T3 fibroblast cells were harvested and plated at a concentration of 1×10^5 cells/mL. Drug dilutions were made in HBSS and added to the plates. Duplicate plates were then incubated in the dark (for controls), or under UV light (meter reading of 1.6-1.8 mW/cm^2) for 50 minutes. Cells were then washed with HBSS, fresh medium was added, and plates were then incubated overnight. The following day, neutral red was added as an indicator of cell viability and plates were incubated for an additional 3 hours. Cells were then washed with HBSS and a solution of 50% EtOH, 10% glacial acetic acid is added. After a 20 minute incubation period, plates absorbance at 535 nm were read using a Wallac Victor 5 spectrophotometer. The phototoxicity in light-treated and control cultures was then compared.

Structure (SMILES) | phototoxicity at 30 μM, incubated in the UV light
CN(C)c1cc(C(=O)O)cc2c1CC1CC3[C@H](N(C)C)C(O)=C(C(N)=O)C(=O)[C@@]3(O)C(O)=C1C2=O (stereo partly drawn) [D] | minimally phototoxic

Same assay, conditions: 3T3 cells, incubated in the dark, 150 μM

Structure (SMILES) | phototoxicity at 150 μM, incubated in the dark
CN(C)c1cccc2c1CC1CC3[C@@H](N(C)C)C(O)=C(C(N)=O)C(=O)[C@@]3(O)C(O)=C1C2=O (stereo partly drawn) [C] | not to be appreciably phototoxic
CN(C)c1cc(C(=O)O)cc2c1CC1CC3[C@H](N(C)C)C(O)=C(C(N)=O)C(=O)[C@@]3(O)C(O)=C1C2=O (stereo partly drawn) [D] | not to be appreciably phototoxic
CN(C)c1cccc2c1CC1CC3CC(O)=C(C(N)=O)C(=O)[C@@]3(O)C(O)=C1C2=O (stereo partly drawn) [E] | not to be appreciably phototoxic
